What was measured:
GLP-1R [1] = target: T1, GLP-1R (Homo sapiens, UniProt P43220, K197A); test: cAMP accumulation assay, GLP-1R WT, mutant or modified constructs; format: cell-based; settings: HEK-293T, GLP-1R K197A; HEK293T
T1 construct: Flag; expressed in transfected cells; host or cells: HEK293T
Procedure: (§1) Human embryonic kidney 293 cells containing SV40 large T-antigen (HEK293T) were cultured in DMEM (Gibco) supplemented with 10% (v/v) fetal bovine serum (FBS, Gibco), 1 mM sodium pyruvate (Gibco) and 100 units/mL penicillin and 100 μg/mL streptomycin at 37 °C in 5% CO2. Chinese hamster ovary (CHO-K1) cells were cultured in F-12 (Gibco) containing 10% FBS, 100 units/mL penicillin and 100 μg/mL streptomycin at 37 °C in 5% CO2. For cAMP and receptor expression assays, HEK293T cells were seeded into 6-well cell culture plates at a density of 7 × 10^5 cells per well. After overnight incubation, cells were transfected with GIPR, GLP-1R or GCGR construct using Lipofectamine 2000 or Lipofectamine 3000 transfection reagent (Invitrogen). For whole-cell binding assay, CHO-K1 cells were seeded into 96-well fibronectin-treated cell culture plates at a density of 3 × 10^4 cells per well. After overnight incubation, cells were transfected with GIPR, GLP-1R or GCGR construct using Lipofectamine 2000 transfection reagent (Invitrogen). Following 24 h culturing, the transfected cells were ready for use. […]
(§2) For GIPR, GLP-1R and GCGR, multi-targeting agonist stimulated cAMP accumulation was measured by a LANCE Ultra cAMP kit (PerkinElmer). […] Plates were incubated at RT for 1 h and the fluorescence intensity measured at 620 nm and […] by an EnVision multilabel plate reader (PerkinElmer).

GLP-1R [2] = target: T2, GLP-1R (Homo sapiens, UniProt P43220, R190A); test: as above; format: cell-based; settings: HEK-293T, GLP-1R R190A; HEK293T
T2 construct: Flag; expressed in transfected cells; host or cells: HEK293T
Procedure: as §1, §2

GCGR [3] = target: GCGR (Homo sapiens, UniProt P47871, D195A); test: Whole-cell binding assay, competition with 125I-GCG; set-up: V5 (C); 6×His (C); expressed in transfected cells; host or cells: CHO-K1; settings: GCGR D195A; CHO-K1; read-out: binding pIC50 (converted)
Outline: (§3)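 CHO-K1 cells transiently transfected with WT or mutant receptor constructs, washed in F-12 with 0.1% BSA or casein/33 mM HEPES and incubated 2 h at 37 °C. Bound radioactivity counted after Triton lysis; data normalized to WT and fitted to a three-parameter logistic equation.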

GCGR [4] = target: GCGR (Homo sapiens, UniProt P47871, D195A/Q142A/R199A); test: as above; set-up: V5 (C); 6×His (C); expressed in transfected cells; host or cells: CHO-K1; settings: GCGR Q142A/D195A/R199A, CHO-K1
Outline: as §3

GCGR [5] = target: GCGR (Homo sapiens, UniProt P47871, Q131A); test: as above; set-up: V5 (C); 6×His (C); expressed in transfected cells; host or cells: CHO-K1; settings: GCGR Q131A, CHO-K1
Outline: as §3

GCGR [6] = target: GCGR (Homo sapiens, UniProt P47871, W87A); test: as above; set-up: V5 (C); 6×His (C); expressed in transfected cells; host or cells: CHO-K1; settings: GCGR W87A, CHO-K1
Outline: as §3

GCGR [7] = target: GCGR (Homo sapiens, UniProt P47871, Y138A); test: as above; set-up: V5 (C); 6×His (C); expressed in transfected cells; host or cells: CHO-K1; settings: GCGR Y138A, CHO-K1
Outline: as §3

[8] = read-out: binding pIC50 (converted)

Chain of GCGR (Homo sapiens, UniProt P47871, D195A/Q142A/R199A) (P47871 26-477 Q142A/D195A/R199A): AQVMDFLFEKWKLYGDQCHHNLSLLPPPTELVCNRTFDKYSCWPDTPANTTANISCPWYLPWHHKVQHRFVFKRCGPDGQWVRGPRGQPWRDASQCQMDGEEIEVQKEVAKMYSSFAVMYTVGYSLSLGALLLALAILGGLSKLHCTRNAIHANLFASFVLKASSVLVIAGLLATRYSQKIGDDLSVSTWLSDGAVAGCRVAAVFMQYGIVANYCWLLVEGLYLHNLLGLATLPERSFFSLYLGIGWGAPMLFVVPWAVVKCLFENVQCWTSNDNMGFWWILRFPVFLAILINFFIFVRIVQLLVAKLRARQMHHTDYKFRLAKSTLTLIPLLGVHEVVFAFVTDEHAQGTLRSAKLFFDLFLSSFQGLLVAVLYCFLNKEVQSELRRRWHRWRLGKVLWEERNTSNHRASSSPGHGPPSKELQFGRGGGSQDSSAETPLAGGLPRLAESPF
Chain of GCGR (Homo sapiens, UniProt P47871, Q131A) (P47871 26-477 Q131A): as the sequence (P47871 26-477 Q142A/D195A/R199A) above, with Q106A, A117Q, A170D, A174R counted along it
Chain of GCGR (Homo sapiens, UniProt P47871, W87A) (P47871 26-477 W87A): as the sequence (P47871 26-477 Q142A/D195A/R199A) above, with W62A, A117Q, A170D, A174R counted along it
Chain of GCGR (Homo sapiens, UniProt P47871, Y138A) (P47871 26-477 Y138A): as the sequence (P47871 26-477 Q142A/D195A/R199A) above, with Y113A, A117Q, A170D, A174R counted along it
T2 sequence (P43220 24-463 R190A): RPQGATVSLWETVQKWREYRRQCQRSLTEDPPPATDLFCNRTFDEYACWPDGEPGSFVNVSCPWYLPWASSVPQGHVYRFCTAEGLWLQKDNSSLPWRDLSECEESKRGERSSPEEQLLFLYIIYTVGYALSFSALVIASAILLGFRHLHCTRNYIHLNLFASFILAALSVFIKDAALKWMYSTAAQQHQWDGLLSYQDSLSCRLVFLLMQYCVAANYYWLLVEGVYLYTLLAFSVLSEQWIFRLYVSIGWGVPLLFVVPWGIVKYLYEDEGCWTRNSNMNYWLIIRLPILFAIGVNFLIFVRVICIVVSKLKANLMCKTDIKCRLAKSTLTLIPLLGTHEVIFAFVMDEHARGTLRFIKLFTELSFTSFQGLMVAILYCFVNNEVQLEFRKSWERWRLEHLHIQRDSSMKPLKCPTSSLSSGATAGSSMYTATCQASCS
T1 sequence (P43220 24-463 K197A): as the sequence (P43220 24-463 R190A) above, with A167R, K174A counted along it
Chain of GCGR (Homo sapiens, UniProt P47871, D195A) (P47871 26-477 D195A): as the sequence (P47871 26-477 Q142A/D195A/R199A) above, with A117Q, A174R counted along it

Compound	Emax (GLP-1R [1])	Emax (GLP-1R [2])	IC50 (GCGR [3])	binding Span (GCGR [4])	IC50 (GCGR [4]; [8])	binding Span (GCGR [5])	IC50 (GCGR [5]; [8])	binding Span (GCGR [6])	IC50 (GCGR [6]; [8])	binding Span (GCGR [7])	IC50 (GCGR [7]; [8])
CC[C@H](C)[C@H](NC(=O)[C@H](CC(C)C)NC(=O)[C@H](Cc1c[nH]c2ccccc12)NC(=O)[C@H](CCC(N)=O)NC(=O)[C@@H](NC(=O)[C@H](Cc1ccccc1)NC(=O)[C@H](C)NC(=O)[C@H](CCCCNC(=O)COCCOCCNC(=O)COCCOCCNC(=O)CC[C@H](NC(=O)CCCCCCCCCCCCCCCCCCC(=O)O)C(=O)O)NC(=O)[C@H](CCC(N)=O)NC(=O)[C@H](C)NC(=O)[C@@H](NC(=O)[C@H](CCCCN)NC(=O)[C@H](CC(=O)O)NC(=O)[C@H](CC(C)C)NC(=O)C(C)(C)NC(=O)[C@@H](NC(=O)[C@H](CO)NC(=O)[C@H](Cc1ccc(O)cc1)NC(=O)[C@H](CC(=O)O)NC(=O)[C@H](CO)NC(=O)[C@@H](NC(=O)[C@H](Cc1ccccc1)NC(=O)[C@@H](NC(=O)CNC(=O)[C@H](CCC(=O)O)NC(=O)C(C)(C)NC(=O)[C@@H](N)Cc1ccc(O)cc1)[C@@H](C)O)[C@@H](C)O)[C@@H](C)CC)[C@@H](C)CC)C(C)C)C(=O)N[C@@H](C)C(=O)NCC(=O)NCC(=O)N1CCC[C@H]1C(=O)N[C@@H](CO)C(=O)N[C@@H](CO)C(=O)NCC(=O)N[C@@H](C)C(=O)N1CCC[C@H]1C(=O)N1CCC[C@H]1C(=O)N1CCC[C@H]1C(=O)N[C@@H](CO)C(N)=O [Tirzepatide]	111 ± 2.77%	102 ± 2.41%	–	–	–	–	–	–	–	–	–
CCCCCCCCCCCCCCCC(=O)N[C@@H](CCC(=O)NCCCC[C@H](NC(=O)[C@H](CC(=O)O)NC(=O)[C@H](CO)NC(=O)[C@@H](NC(=O)[C@H](Cc1ccccc1)NC(=O)[C@@H](NC(=O)CNC(=O)[C@H](CCC(N)=O)NC(=O)C(C)(C)NC(=O)[C@@H](N)Cc1c[nH]cn1)[C@@H](C)O)[C@@H](C)O)C(=O)N[C@@H](CO)C(=O)N[C@@H](CCCCN)C(=O)N[C@@H](Cc1ccc(O)cc1)C(=O)N[C@@H](CC(C)C)C(=O)N[C@@H](CC(=O)O)C(=O)N[C@@H](CCC(=O)O)C(=O)N[C@@H](CCCNC(=N)N)C(=O)N[C@@H](C)C(=O)N[C@@H](C)C(=O)N[C@@H](CCC(N)=O)C(=O)N[C@@H](CC(=O)O)C(=O)N[C@@H](Cc1ccccc1)C(=O)N[C@H](C(=O)N[C@@H](CCC(N)=O)C(=O)N[C@@H](Cc1c[nH]c2ccccc12)C(=O)N[C@@H](CC(C)C)C(=O)N[C@@H](CC(C)C)C(=O)N[C@@H](CC(=O)O)C(=O)NCC(=O)NCC(=O)N1CCC[C@H]1C(=O)N[C@@H](CO)C(=O)N[C@@H](CO)C(=O)NCC(=O)N[C@@H](C)C(=O)N1CCC[C@H]1C(=O)N1CCC[C@H]1C(=O)N1CCC[C@H]1C(=O)N[C@@H](CO)C(N)=O)C(C)C)C(=O)O [Peptide 20]	–	–	25.7 nM	24.37 ± 1.80 % WT	30.2 nM	32.87 ± 3.34 % WT	69.2 nM	4.68 ± 2.95 % WT	1.51 nM	2.08 ± 2.48 % WT	1.15 nM

From publication PMC8881610 (Nature Communications, 2022)
